Assays:
EGFR(T790M/L858R) = biological target: T1, EGFR(T790M/L858R) (Homo sapiens, UniProt P00533, L858R/T790M); assay: In vitro non-radioactive kinase assay, EGFR(T790M/L858R) Kinase Assay Kit (BPS Bioscience); assay type: biochemical; conditions: for IC50: EGFR(T790M/L858R) Kinase Assay Kit, concentration inhibiting 50% enzyme activity, read-out: IC50 (μM) ± Std. Dev.; for Activity on mutant EGFR in kinase assay (in words): compared with compound 4, five independent experiments
T1 construct: purchased BPS Bioscience 40322
Description: In vitro kinase assays were performed using the EGFR(T790M/L858R) Kinase Assay Kit (BPS
Bioscience, Cat. #40322) in the presenc e of compounds or vehicle . Assays conditions were set
according to the manufacturer’s instructions. Dose -response curves were fitted by non -linear
regression of normalized enzyme activity vs log[inhibitor] data, using GraphPad Prism software. […]

wt EGFR H1299 cell line = system: wt EGFR H1299 cell line; set-up: method as in PMID 29766737; conditions: read-out: IC50 anti-proliferative activity; cited from earlier work
[1] = system: double mutant H1975 cell line; set-up: method as in PMID 29766737; conditions: read-out: IC50 anti-proliferative activity; cited from earlier work
[2] = system: T790M/L858R double mutant EGFR; set-up: method as in PMID 29766737; conditions: type III allosteric inhibitor of T790M/L858R double mutant EGFR; cited from earlier work
[3] = system: mutant EGFR H1650 cell line; set-up: method as in PMID 29766737; conditions: read-out: IC50 anti-proliferative activity; cited from earlier work
[4] = system: phospho-EGFR (Tyr1068) in H1975 cells; assay: EGFR phosphorylation by Western blot in H1975 cells; assay type: cell-based; conditions: Western blot after 8-h incubation, 10 µM
Description: (§1) Figure 3. Activity of compounds 15 and 18 in H1975 cells. (A) Cell viability was measured by MTS assay. (B) EGFR phosphorylation was assessed by Western blot after 8-h incubation with the compounds (10 µM). Total EGFR and actin are shown for loading control. […]
(§2) 3-nitroaniline 1a (119 mg); 4-fluoro-3-(iminomethyl)phenyl acetate 2h (181 mg); 5-fluoro-2-methyl-1H-indole 3b (149 mg); purification: procedur b, […]
In vitro kinase assays were performed using the EGFR(T790M/L858R) Kinase Assay Kit (BPS Bioscience, Cat. #40322) in the presenc e of compounds or vehicle . Assays conditions were set according to the manufacturer’s instructions. Dose -response curves were fitted by non -linear regression of normalized enzyme activity vs log[inhibitor] data, using GraphPad Prism software.
(§3) For cytotoxicity assays, compounds were added to cells in 96-well plates for 72 hours. Cell viability was measured by MTS assay using the CellTiter 96® AQueous One Solution Cell Proliferation Assay System (Promega, Madison, WI, USA) according to instructions. Inhibition of EGFR was assessed by Western blotting after incubating the cells with the compounds for 8 hours. […]
(§4) Chemiluminescence was detected using a ChemiDoc XRS+ System (Bio-Rad, Hercules, CA, USA) and Image Lab software (Bio-Rad). […]

[5] = system: H1975 lung cancer cell line expressing the double mutant L858R/T790M EGFR; assay: Cell proliferation / viability by MTS assay in H1975 cells; assay type: cell-based; conditions: 72 hours, micromolar concentrations
Description: Compounds 15 and 18 were then tested in cell proliferation assays on the H1975 lung cancer cell line expressing the double mutant L858R/T790M EGFR.
as §1, §2
In vitro kinase assays were performed using the EGFR(T790M/L858R) Kinase Assay Kit (BPS Bioscience, Cat. #40322) in the presenc e of compounds or vehicle . Assays conditions were set according to the manufacturer’s instructions. […]
as §3, §4

IC50 (EGFR(T790M/L858R)) | Compound | Activity on mutant EGFR in kinase assay (in words) (EGFR(T790M/L858R)) | also measured
96 ± 30 µM | Cc1[nH]c2ccccc2c1C(Nc1cccc([N+](=O)[O-])c1)c1ncccc1O (stereo not shown) [Compound 12] |  | 
 | Cc1[nH]c2ccccc2c1C(Nc1cccc([N+](=O)[O-])c1)c1ccccc1 (stereo not shown) [Compound 13] | lack of activity | 
154 ± 11 µM | Cc1[nH]c2ccccc2c1C(Nc1cccc([N+](=O)[O-])c1)c1ccccn1 (stereo not shown) [Compound 4] |  | IC50 (wt EGFR H1299 cell line): 14.5 ± 0.3 µM; IC50 [1]: 24 ± 2 µM; EC50 [2]: 6.2 ± 0.5 µM; IC50 [3]: 19 ± 2 µM
33 ± 4 µM | Cc1[nH]c2ccccc2c1C(Nc1cccc([N+](=O)[O-])c1)c1ccccc1O (stereo not shown) [Compound 15] | significantly improved activity with respect to 4 | Inhibition of EGFR phosphorylation (in words) [4]: inhibited; Inhibition of cell proliferation (in words) [5]: inhibited cell proliferation
123 ± 17 µM | Cc1[nH]c2ccc(F)cc2c1C(Nc1cccc([N+](=O)[O-])c1)c1ccccn1 (stereo not shown) [Compound 7] |  | 
27 ± 5 µM | Cc1[nH]c2ccccc2c1C(Nc1cccc([N+](=O)[O-])c1)c1cc(O)ccc1F (stereo not shown) [Compound 18] | significantly improved activity with respect to 4 | Inhibition of EGFR phosphorylation (in words) [4]: inhibited; Inhibition of cell proliferation (in words) [5]: inhibited cell proliferation
63 ± 12 µM | Cc1[nH]c2ccccc2c1C(Nc1cccc([N+](=O)[O-])c1)c1cc(F)ccc1O (stereo not shown) [Compound 17] |  | 
95 ± 31 µM | O=[N+]([O-])c1cccc(NC(c2ccccn2)c2c[nH]c3ccccc23)c1 (stereo not shown) [Compound 8] |  | 
 | COc1ccc(F)cc1C(Nc1cccc([N+](=O)[O-])c1)c1c(C)[nH]c2ccccc12 (stereo not shown) [Compound 14] | lack of activity | 

Source: publication PMC9665079, “Structure-activity exploration of a small-molecule allosteric inhibitor of T790M/L858R double mutant EGFR” (Journal of Enzyme Inhibition and Medicinal Chemistry, 2022)
